Measurements published in patent publication US20190175534A1, “PHARMACEUTICAL COMPOSITIONS COMPRISING DGLA AND USE OF SAME” (DS Biopharma Limited, priority 2016, published 2019).

Tests used:
[1] = Phase 1 multiple-dose skin blister fluid concentrations of free and total DGLA; format: in vivo, human
Text: The PK of DGLA in human skin following multiple doses of DS107G capsule given once daily for 28 days to healthy subjects.

[2] = Phase 1 multiple-dose (28 days) plasma pharmacokinetics of free and total DGLA, incl. steady state; format: in vivo, human; settings: for Peak Trough Fluctuation (PTF), free DGLA, mean: steady state Day 28 (0-24 hours); for Peak Trough Fluctuation (PTF), mean (Table 29, total DGLA): steady-state Day 28 (0-24 hours)
Protocol: Multiple dose part two of the study comprised two cohorts (Cohorts five and six) of eight subjects each, who were administered multiple doses of study drug in the fasted state for 28 days. Subjects in Cohorts five and six received DS107G at 2000 or 4000 mg, respectively, or matching placebo once daily for 28 days. Cohort six was started after Cohort five's safety data were evaluated by the SMC. No interim analysis was planned. […]
In Part two of the study (Cohorts five and six), subjects were administered study drug (500-mg DS107G capsules or matching placebo capsules) once daily in the fasted state for 28 days. Subjects in Cohort five received study drug first and, if they tolerated the 2000-mg daily dose for the first 14 days, subjects in Cohort six were started on the 4000-mg daily dose for 28 days.
PK parameter was computed after correcting the dosed DGLA concentrations with baseline DGLA concentrations.

[3] = first value printed for the two dose cohorts (2000 mg assumed)
[4] = second value printed for the two dose cohorts (4000 mg assumed)

SMILES: CCCCC/C=C\C/C=C\C/C=C\CCCCCCC(=O)O [DGLA, Dihomo gamma linolenic acid]
- Mean total DGLA concentration in skin blister fluid, Day 28 over Day 1 ([1]; 2000 mg daily): about 2.5 fold
- Mean total DGLA concentration in skin blister fluid, Day 28 over Day 1 ([1]; 4000 mg daily): ~3 fold
- Increase of mean total DGLA concentrations in skin blister fluid with a doubling in dose ([1]; Days 1, 8, 14 and 28): about 1.4 fold
- Mean free DGLA concentrations in skin blister fluid with a doubling in dose ([1]; Days 1, 8, 14 and 28, 2000 vs 4000 mg daily): approximately doubled
- Mean free DGLA concentration in skin blister fluid, Day 28 over Day 1 ([1]; both 2000 and 4000 mg daily): about 3 fold
- Mean concentrations of free DGLA in plasma versus skin blister fluid ([1]; same dose, Day 8 and Day 14 (but not Day 28)): somewhat similar
- Mean concentrations of total DGLA in plasma versus skin blister fluid ([1]; same dose, after Day 1): much higher in plasma than in skin blister fluid
- Mean accumulation ratio (AR) for AUC, free DGLA ([2]; 2000 mg daily): ~3.3
- Mean accumulation ratio (AR) for Cmax, free DGLA ([2]; 2000 mg daily): ~2.8
- Mean accumulation ratio (AR) for AUC, free DGLA ([2]; 4000 mg daily): ~1.6
- Mean accumulation ratio (AR) for Cmax, free DGLA ([2]; 4000 mg daily): ~1.4
- Time at which plasma concentrations reach steady-state (free and total DGLA) ([2]; 2000 and 4000 mg daily): ~14 days
- Mean baseline-corrected free DGLA AUC0-24, 4000 mg over 2000 mg dose ([2]; Day 1): ~2.5 fold
- Mean baseline-corrected free DGLA Cmax, 4000 mg over 2000 mg dose ([2]; Day 1): ~3 fold
- Mean baseline-corrected total DGLA AUC0-24, 4000 mg over 2000 mg dose ([2]; Day 1): ~1.5 fold
- Mean baseline-corrected total DGLA Cmax, 4000 mg over 2000 mg dose ([2]; Day 1): ~1.5 fold
- Mean baseline-corrected free DGLA AUC0-24, 4000 mg over 2000 mg dose ([2]; Day 28): ~1.7 fold
- Mean baseline-corrected free DGLA Cmax, 4000 mg over 2000 mg dose ([2]; Day 28): ~1.4 fold
- Mean baseline-corrected total DGLA AUC0-24, 4000 mg over 2000 mg dose ([2]; Day 28): ~1.4 fold
- Mean baseline-corrected total DGLA Cmax, 4000 mg over 2000 mg dose ([2]; Day 28): ~1.2 fold
- Time of peak mean concentration of free DGLA after dosing ([2]; Days 1 and 28, 2000 and 4000 mg daily): about 4 hours
- Increase of average concentration at steady state, free DGLA, dose doubled from 2000 to 4000 mg daily ([2]; in vivo): 1.6 fold
- Increase of average concentration at steady state, total DGLA, dose doubled from 2000 to 4000 mg daily ([2]; in vivo): 1.2 fold
- Peak Trough Fluctuation (PTF), free DGLA, mean [2, 3]: ~430%
- Peak Trough Fluctuation (PTF), free DGLA, mean [2, 4]: ~490%
- Peak Trough Fluctuation (PTF), mean (Table 29, total DGLA) [2, 3]: 62.5%
- Peak Trough Fluctuation (PTF), mean (Table 29, total DGLA) [2, 4]: 44.9%
